This note sets out measurements from the NIST ThermoML archive (doi:10.1016/j.jct.2019.03.035).

Series [1] can be described thus: refractive index (other wavelength) (dimensionless). Particulars: 100 kPa, Liquid, Wavelength=632.8 nm, minimum deviation angle technique.
Series [2] is described as follows: refractive index (other wavelength) (dimensionless); xn = mol fraction of the nth substance listed. Particulars: 288.62 K; 100 kPa; Liquid; Wavelength=632.8 nm; minimum deviation angle technique; x2 = 0.

Numbers after ± are expanded uncertainties.

On to `CCCCCCCCCC` [decane], for which the refractive index (usually the speed of light in vacuum divided by its phase velocity in the sample) in series [1] (285.51 K) is listed as 1.4142 ± 0.0003; in series [1] (286.56 K) it was 1.4137 ± 0.0003; in series [1] (287.57 K), 1.4133 ± 0.0003; in series [1] (288.6 K) it was 1.4128 ± 0.0003; in series [1] (288.62 K), 1.4128 ± 0.0003; in series [1] (289.75 K), 1.4123 ± 0.0003. Also, the refractive index in series [1] (290.67 K) came out at 1.4119 ± 0.0003; in series [1] (291.68 K), 1.4114 ± 0.0003; in series [1] (292.74 K), 1.411 ± 0.0003; in series [1] (293.98 K) it was 1.4104 ± 0.0003.

Take `CCCCCCCCCC` [decane] + N#Cc1ccccc1: the refractive index in series [2] is on record as 1.4128 ± 0.0003.

For `N#Cc1ccccc1` [benzonitrile], the refractive index in series [1] (285.47 K) was determined as 1.5293 ± 0.0003; in series [1] (286.4 K) it was 1.5288 ± 0.0003; in series [1] (287.49 K) it was 1.5283 ± 0.0003; in series [1] (288.44 K), 1.5278 ± 0.0003; in series [1] (288.62 K), 1.5277 ± 0.0003; in series [1] (289.45 K), 1.5274 ± 0.0003. The refractive index was 1.5268 ± 0.0003 in series [1] (290.7 K), 1.5262 ± 0.0003 in series [1] (291.77 K), 1.5258 ± 0.0003 in series [1] (292.66 K) and 1.5252 ± 0.0003 in series [1] (293.89 K).
